The record followed here is PMC1851987, “Identification of the Endogenous Key Substrates of the Human Organic Cation Transporter OCT2 and Their Implication in Function of Dopaminergic Neurons” (PLoS ONE, 2007).

The target in data set [1] is T1, organic cation transporter OCT2 (wild-type 400R) (Homo sapiens, UniProt O15244, S270A).
T1 sequence (O15244 1-555 S270A): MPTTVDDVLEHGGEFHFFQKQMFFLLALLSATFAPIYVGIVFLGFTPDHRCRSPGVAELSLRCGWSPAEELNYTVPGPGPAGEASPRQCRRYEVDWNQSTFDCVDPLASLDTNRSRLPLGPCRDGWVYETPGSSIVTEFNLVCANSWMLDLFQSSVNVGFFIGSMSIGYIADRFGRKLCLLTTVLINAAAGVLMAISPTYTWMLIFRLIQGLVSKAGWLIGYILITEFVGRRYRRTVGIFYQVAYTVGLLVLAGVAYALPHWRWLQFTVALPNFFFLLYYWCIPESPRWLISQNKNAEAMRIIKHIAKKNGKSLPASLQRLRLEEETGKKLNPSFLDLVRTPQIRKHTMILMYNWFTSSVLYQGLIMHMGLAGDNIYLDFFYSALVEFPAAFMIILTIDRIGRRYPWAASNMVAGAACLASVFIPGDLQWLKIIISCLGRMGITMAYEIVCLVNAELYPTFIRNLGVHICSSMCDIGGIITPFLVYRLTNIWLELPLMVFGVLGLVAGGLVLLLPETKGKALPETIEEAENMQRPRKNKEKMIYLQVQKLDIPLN
Briefly: Specific uptake into OCT2 (wild-type) transfected HEK-293 cells vs empty vector, LC-MS-MS. The conditions noted are these: for influx clearance Clin: specific uptake after incubation with 10 µmol/l, mean (s.e.m.), n = 3.

The next data set addresses T2, OCT2 variant R400C (Homo sapiens, UniProt O15244, R400C/S270A).
T2 sequence (O15244 1-555 S270A/R400C): T1 sequence (O15244 1-555 S270A) with R400C
Put plainly: Specific uptake into HEK-293 cells transfected with OCT2 variant R400C (mutant 400C). Particulars: for Clin: incubation with 10 µmol/l. The protocol: The cDNAs encoding the organic cation transporters OCT1 (GenBank accession no. NM_003057), OCT2 (NM_003058), and EMT (NM_021977) were amplified by RT-PCR from human liver, kidney, and placenta total RNA respectively, and subcloned into the eukaryotic expression vector pcDNA3. The cDNA encoding the norepinephrine transporter (SLC6A2) was kindly provided by C. Pifl (University of Vienna).
For uptake experiments, cells were grown on polystyrene dishes of 60 mm diameter to at least 80% confluence. Prior to addition of test compounds, culture medium was replaced by 3 ml HEPES-modified Krebs buffer (140.0 mmol/l NaCl, 5.0 mmol/l KCl, 2.0 mmol/l CaCl2, 1.0 mmol/l MgCl2, 10.0 mmol/l HEPES, and 5.0 mmol/l D-glucose, adjusted to pH 7.40), and cells were left to equilibrate for 60 min at 37°C. Uptake was terminated after indicated times by washing cells with ice-cold buffer. Cells were lysed with 1 ml of 4 mmol/l perchloric acid and lysates subjected to LC-MS-MS quantification. Cellular protein content was determined after solubilization of perchloric acid precipitates with 1 ml of […] NaOH using the bicinchoninic assay (BCA Protein Assay Kit, Pierce).
Chromatographic separations were performed on Hypercarb (5 µm, 50×2.1 mm; Thermo Electron), Aquasil C18 (3 µm, 100×4.6 mm; Thermo Electron), or Hilic columns (5 µm, 100×3.0 mm; Waters Atlantis) by isocratic or gradient elution using 0.1% aqueous formic acid (A) and acetonitrile or methanol (B) as solvent system. For quantification, SRM transitions of a precursor ion [M+H]^+ into a specific fragment ion (peak area ratios relative to IS) were recorded in positive ESI mode at 1.0–1.5 mTorr collision pressure and 10–40 eV collision energy. External calibration curves were obtained from serial dilutions of the analyte in 4 mmol/l HClO4 by linear or logistic regression. Detection limit was at least 0.001 nmol/mg protein.
Uptake versus time data were fitted by linear one-compartment kinetics: cin(t) = cin,∞·(1−e^−kex·t), where cin(t) represents intracellular free substrate concentration after time t (pmol/mg protein), cin,∞ extrapolated maximal intracellular free substrate concentration (pmol/mg protein), and kex efflux rate constant (1/min). Influx clearance was calculated as CLin = cin,∞/cex·kex (µl/mg protein/min), with cex extracellular free substrate concentration (pmol/µl). Statistical significance of differences between two treatments was evaluated by the unpaired two-tailed t-test or Mann-Whitney U-test, differences between more than two treatments by one-way ANOVA or Kruskal-Wallis test, as applicable. P<0.05 was considered statistically significant.

In data set [2] the test system is HEK-293 cells expressing empty vector. Put plainly: MTT reduction cell viability assay, empty vector transfected HEK-293 cells. In kind it is cell-based, human. The protocol:
Cell viability was assessed in HEK-293 cells, human dopaminergic neuroblastoma cells (SH-SY5Y) and human glioblastoma cells (HTZ-146) by the MTT test as described.[22] […] For indication of metabolic activity, cells were treated with MTT reagent (15 µl of 1 mg/ml stock solution per well) for 1 h, and after drying of culture plates for 1 h at 37°C, the resulting formazan dye was extracted with isopropanol/HCl (100 µl 0.04 mol/l per well) and absorbance was determined spectrophotometrically at 568 nm. Results were in agreement with the data obtained by the tryptan blue exclusion method (data not shown).
On the technique in general: Tetrazolium dyes change colour on reduction, which living cells bring about.

Where a chain is given by its changes, count along the chain named. Marks after values point to notes of the source that are not given here.

As for `O=C1NC(Cc2c[nH]cn2)C(=O)N2CCCC12` (stereo not shown) [cyclo(his-pro), histidyl-proline diketopiperazine], the “dependence of specific uptake on pH” value in data set [1] (10 µmol/l, 3 min incubation) was “pH influenced specific uptake”. Also, the “dependence of specific uptake on extracellular sodium concentration” value in data set [1] (10 µmol/l, 3 min incubation, sodium chloride isoosmotically replaced with lithium chloride) is “independent of extracellular sodium concentration”. Further, in data set [1], the “influx clearance Clin” value is reported as 25.0 (4.2) µl/mg/min. The Vmax on OCT2 variant R400C (1 min of loading, mean (s.e.m.), listed as CHP) is 1.0 (0.1) nmol/mg/min. In addition, on OCT2 variant R400C (400C vs wild-type 400R), the “clearance (Clin) of 400C relative to the 400R reference” value is 70% and the “transport efficiency (Vmax/Km) of 400C relative to the 400R reference” value came to 48%. For the same molecule, the Clin on OCT2 variant R400C (mean (s.e.m.)) is given as 17.6 (1.5)^# µl/mg/min. In addition, the Clin at OCT2 variant R400C (mean (s.e.m.), listed as CHP) is recorded as 17.6 (1.5) µl/mg/min. Moreover, in data set [2] (cyclo(his-pro) 10 µmol/l, 12 h prior to salsolinol treatment), the “effect of pretreatment on salsolinol-induced degeneration” value was “had no effect”.
As for `CC1NCCc2cc(O)c(O)cc21` (stereo not shown) [salsolinol], in data set [1] (after 60 min of incubation, transfected HEK-293 cells), the “N-methylation of intracellular salsolinol (of salsolinol concentration)” value is at most 2.5%. For the same molecule, the “influx clearance Clin” value in data set [1] is recorded as 18.5 (2.6) µl/mg/min. Besides, the Km (as a rule, the substrate concentration at which the rate is half of its maximum) at 1 min at OCT2 variant R400C (human, pH 7.4) came out at 123 µM. In data set [2] (Homo sapiens, HEK293, 48 h exposure, no pretreatment, read-out: EC50 (95% confidence interval), cell viability), the EC50 (in general, the concentration giving half of the maximal effect) is 1.11 mM.
